Results taken from US20220000871A1, “METHODS AND COMPOSITIONS FOR TREATING NEURODEGENERATIVE DISEASES USING MODULATORS OF PHOSPHOGLYCERATE KINASE 1 (PGK1) ACTIVITY” (UNIVERSITY OF IOWA RESEARCH FOUNDATION, priority 2019, published 2022).

What was measured:
[1] = test system: M17 human neuroblastoma cells; assay: Glycolysis and mitochondrial function in M17 cells; settings: in vitro, 10 μM, 24 hr (ECAR)
Experimental: Cells were incubated with mild hypoxia for 12 hr before study. Cells were cultured in a sealed chamber (Stemcell Technologies Vancouver, Canada) that was flushed with a humidified gas mixture composed of 5% 02, 5% carbon dioxide (CO2), and 90% nitrogen (N2) for 12 hr. […] Assays of ATP, pyruvate, and citrate synthase activities (CS) were performed according to the manufacturer's instructions.
A Seahorse XV analyzer (XF^e-24, Seahorse Bioscience, Billerica, Mass., USA) was used to measure the oxygen consumption rate (OCR) and the extracellular acidification rate (ECAR) as previously described (18). The M17 cells and iPS cells were seeded in XF^e 24-well plates (Seahorse Bioscience), while the plates used for iPS cells were poly-D-lysine pre-coated. Assay medium was prepared by supplementing Seahorse XF^eBaseMedium minimal DMEM (Seahorse Bioscience) with 2 mM L-glutamine for a Glycolysis Stress Test assay or 2 mM L-glutamine, 1 mM pyruvate and 10 mM glucose for a Mito Stress Test assay (Sigma). pH was adjusted to 7.4 at 37° C. Probes (Seahorse Bioscience) were hydrated in the calibrant (Seahorse Bioscience) in a non-CO2 incubator at 37° C. overnight. Cells were washed twice with assay medium and kept in a non-CO2 incubator at 37° C. for 1 hr before analysis. Glucose, oligomycin and 2-deoxy-glucose (2-DG) were pre-loaded in the probe plate for Glycolysis Stress Test, while oligomycin, FCCP and a mixture of rotenone and antimycin A were used for Mito Stress Test.
Citrate synthase (CS) activity, LDH assay and pyruvate level were detected using commercial kits according to the manufacturer's directions. ATP content in animal tissues and M17 cells were detected with the ATP assay kit following the manufacturer's directions.

MPTP-treated mice = assay: MPTP mouse model; assay type: in vivo; settings: SNc, western blot, FIG. 17B
Experimental: A) Schematic for experiments in panels B-K. C57BL/6 mice (8 week-old) received 4 i.p. injections of MPTP (20 mg/kg at 2 hr intervals) or vehicle on day 0. […] N=6. […] Quantification of TH protein normalized to control (C,D). N=6. E-G) Example of immunostaining of TH in SNc and striatum (E, scale bars, 500 μm SNc, 1 mm striatum). Quantification of TH-positive neurons in SNc (F) and TH intensity in the striatum (G). N=6. H,I) Dopamine (DA) content in striatum and SnC. N=6. J) Percentage of TH-positive neurons that were positive for TUNEL staining. N=6. K) Behavioral response of mice in rotarod test. Data are duration that mice remained on an accelerated rolling rod normalized to mice at day 0. N=8. Data are examples and mean±SEM. […] Statistical analysis at day 7 and day 14 was Mann-Whitney. In the figure, *p<0.05, **p<0.01.
FIG. 10. […] A) Schematic of experiments in panels B-F. C57BL/6 mice (8 week-old) received 4 i.p. injections of MPTP (20 mg/kg at 2 hr intervals) or vehicle on day 0. […] B,C) Pyruvate and ATP levels in mouse SNc. N=6. D) Mitochondrial DNA (mDNA, 16S and ND1) relative to nuclear DNA (nDNA, intron β-globin) by quantitative PCR of mouse striatum and SNc. N=3. E,F) VDAC (E) and PHB1 (F) protein levels in striatum and SNc assayed by western blot and normalized to control. N=6.
FIG. 12. […] A) Schematic for experiments in panels B-J. C57BL/6 mice (8 week-old) received 4 i.p. injections of MPTP (20 mg/kg at 2 hr intervals) or vehicle on day 0. […] B) Example of TH immunostaining in the SNc on days 7 and 14. Scale bar, 500 μm. C-F) Measurement of DOPAC in mouse striatum (C) and SNc (D) and measurement of HVA in striatum (E) and SNc (F). (N=6). G) Example of TH and TUNEL co-staining in the SNc. TH (green), TUNEL (red), and DAPI (nuclei, blue). Scale bar, 25 μm. Quantitative data are in FIG. 2J. H) Left panels are Nissl staining of neurons in the striatum. Samples were obtained 7 days after MPTP injection. Right panels show the quantification. […] Scale bar, 400 μm. N=3 per group. I,J) Behavioral response of mice in the pole test. (I) Time mice took to turn their heads from upward to downward. (J) Time mice took to climb down the pole. N=8.
MPTP was injected (i.p.) on one day at 20 mg/kg for four times at 2-hour intervals, as previously described (4). […] At the end of the drug or saline treatment, behavioral tests including rotarod test and pole test were carried out before the animals were sacrificed.
The rotarod test was carried out using an automated rotarod (E103, UGO BASILE). At a fixed speed of 15 revolutions per minute (rpm), mice were pre-trained for two consecutive days until they were able to remain on the rod for more than 60 seconds. […] The latency to fall was recorded for a maximum recording time of 600 seconds. The behavior was monitored by a video camera.
This test was carried out by leaving a pole in the cage where the mice were housed. The pole test was performed on the 14th day after MPTP injection as previously described (9). The mouse was placed in a head-upward position on top of a vertical pole (diameter 8 mm, height 55 cm) with a ball (diameter 2.5 cm) on the head of the pole. The pole was wrapped with the nylon gauze to prevent the mouse from slipping down. Each mouse was trained twice before testing. The time that the mouse took to turn his head from upward to downward (Time: Turn) and the time the mouse took to reach the floor with his forepaws (Time: Locomotion Activity) were recorded. Each mouse was tested three times with 5 min. intervals, and the average time was quantified.

[2] = test system: Hela cell stably expressed FUS-GFP; assay: Hela cells stably expressing FUS-GFP; assay type: cell-based
Description: FIG. 19. Relative ATP levels in Hela cells expressing FUS-GTP after treatment with alfazosin (AZ) and rotenone (Rot).
FIG. 20. Expression levels of FUS-GTP in cells treated with alfazosin (AZ), rotenone (Rot), and 17AAG, an inhibitor of the ATPase of HSP90.
FIG. 21. Fluorescence recovery of FUS-GTP in Hela cells after photobleaching.
We studied Hela cell stably expressed FUS-GFP to determine whether alfazosin (AZ) affected the molecule biology of FUS. (See FIG. 19). FUS forms phase-separated aggregates in cells and is commonly used to test agents that enhance or inhibit aggregate formation. The cells were maintained under mild hypoxic condition (5% oxygen), in which mitochondria function at their highest level. Alfazosin (AZ) was added in the culture medium with or without rotenone, a mitochondrial respiration inhibitor. 60 hours later, we measured the ATP level. The control (without AZ) is set as 1 (N=3).
We quantified FUS-GFP protein levels using actin as a protein loading control. (See FIG. 20). Rotenone (Rot) is a mitochondrial respiration inhibitor, 17AAG is an inhibitor of the ATPase of HSP90. The control level of FUS/actin is set as 1, and relative ratio of other treatment is compared.
(See FIG. 21). After 30 seconds photobleaching, the recovery of GFP signal was measured and plotted. N=10.

[3] = test system: Hek293T cells expressing APPswe-GFP; assay: Hek293T cells transfected with APPswe-GFP; assay type: cell-based; settings: 24 hours
Description: FIG. 22. Expression of amyloid precursor protein (APP) Swedish mutation tagged with GFP (APPswe-GFP) in transfected Hek293T cells. Left panel—expression of GFP in cells treated with alfazosin (AZ). Right panel—relative intensity versus treatment with increasing concentrations of AZ.
FIG. 23. Western blot quantification of APPswe-GFP in transfected Hek293T cells treated with increasing concentration of alfazosin (AZ).
We also studied Hek293T cells that were transfected with the amyloid precursor protein (APP) Swedish mutation tagged with GFP (APPswe-GFP). (See FIG. 22). After transfection, AZ (1-10 μM) was added for 24 hours. The GFP intensity without AZ treatment was set as 1.
AZ (1-100 μM) was added for 24 hours to Hek293T cells expressing APPswe-GFP. Then, cell lysates were collected for protein quantification by western blot. (See FIG. 23). The APP/actin ratio was plotted.

Row | Compound | glycolysis [1] | tyrosine hydroxylase levels in MPTP-treated mice (MPTP-treated mice) | ATP increase with rotenone ([2]; 5% oxygen, 60 hours, with rotenone) | ATP level ([2]; 5% oxygen, 60 hours, without rotenone) | FUS-GFP protein levels ([2]; FUS/actin, western) | aggregation of APPswe-GFP (GFP intensity) ([3]; AZ 1-10 μM) | APPswe-GFP levels (APP/actin ratio, western blot) ([3]; AZ 1-100 μM)
1 | COc1cc2nc(N3CCN(C(=O)C4COc5ccccc5O4)CC3)nc(N)c2cc1OC (stereo not drawn) [doxazosin] | increased | increased |  |  |  |  | 
2 | COc1cc2nc(N(C)CCCNC(=O)C3CCCO3)nc(N)c2cc1OC (stereo not drawn) [alfuzosin] | increased | increased | abolished | increases | reduced | decrease | reduces
